These are literature values, as cited in patent US20080138388A1 (priority 2005, published 2008).

Structures are written as SMILES. Where two headings read alike, the source gives them in different places.

As to `Nc1c(Br)cc(Br)cc1CN[C@H]1CC[C@H](O)CC1` [ambroxol], the “logP (octanol-water partition coefficient, free state)” value (free state) was 3.00.
In the case of `OC(CCN1CCCCC1)(c1ccccc1)c1ccccc1` [pridinol], the “logP (octanol-water partition coefficient, free state)” value (free state) is given as 3.79.
Consider `CCCN1C[C@H](CSC)C[C@@H]2c3cccc4[nH]cc(c34)C[C@H]21` [pergolide], for which the “logP (octanol-water partition coefficient, free state)” value (free state) is given as 4.07.
Turning to `CCOc1ccccc1OCCN[C@H](C)Cc1ccc(OC)c(S(N)(=O)=O)c1` [tamsulosin], the “logP (octanol-water partition coefficient, free state)” value (free state) is given as 3.22.
For `CCOC(=O)[C@H](CCc1ccccc1)N[C@@H](C)C(=O)N1[C@H](C(=O)O)C[C@H]2CCCC[C@@H]21` [trandopril], the “logP (octanol-water partition coefficient, free state)” value was 4.00.
